Like-named read-outs stand apart in the source and are kept apart here.
How the values were obtained:
[1] = test system: H292 cells; assay type: cell-based; details: for apoptosis: 24 h
Description: (§1) Apoptosis is a crucial mechanism of cell death induced by anticancer drugs. We further analyzed the apoptosis induction effect of the potent small molecules, namely DH_28, DH_30, and DH_31. Nuclear morphology detected by the staining with nucleus-specific fluorescence dye Hoechst 33342 and cell-impermeable PI for necrotic detection was performed. Morphologic changes by means of condensed and/or fragmented nuclei were observed after 24 h of treatment (Figure 2D). […] Therefore, DH_31 was selected for further experiments.
Figure 2 The effect of RT right-half analogs on cytotoxicity in NSCLC and human normal lung epithelial (BEAS-2B) cell lines and apoptotic cell death in NSCLC cells. (A) NSCLC H292 and H460 cells were treated with derivatives of RT right-half analogs for 24 h and analyzed using MTT assay to assess cytotoxicity. (B) IC50 values for H292 and H460 cell lines were calculated. (C) BEAS-2B cells were treated with DH_28, DH_30, DH_31, and TM-(−)-18 for 24 h. The cytotoxic effects were evaluated using an MTT assay, and the IC50 values for BEAS-2B cells were determined. (D) H292 and H460 cells were seeded and treated with 0–10 μM of DH_28, DH_30, and DH_31 for 24 h. Hoechst 33342 and PI were used to stain the cell nuclei. Images were obtained under a fluorescence microscope. (E) The percentages of cell death were calculated based on the stained images in H292 and H460 cells. Data represent the mean ± SD (n = 3). *, **, and *** indicate a statistically significant difference between the treated and the untreated cells at p < 0.05, p < 0.01, and p < 0.001, respectively. TEXT PRINTED IN THE PICTURE: (B) DH_17: IC50 ± SD (μM) H292: 20.50 ± 3.69; IC50 ± SD (μM) H460: > 100 | (B) DH_20: IC50 ± SD (μM) H292: 21.46 ± 3.77; IC50 ± SD (μM) H460: > 100 | (B) DH_23: IC50 ± SD (μM) H292: 17.50 ± 3.08; IC50 ± SD (μM) H460: > 100 | (B) DH_26: IC50 ± SD (μM) H292: 7.18 ± 2.39; IC50 ± SD (μM) H460: > 100 | (B) DH_28: IC50 ± SD (μM) H292: 9.56 ± 1.87; IC50 ± SD (μM) H460: 11.48 ± 1.87 | (B) DH_30: IC50 ± SD (μM) H292: 7.80 ± 2.30; IC50 ± SD (μM) H460: 4.51 ± 0.78 | (B) DH_31: IC50 ± SD (μM) H292: 5.54 ± 1.04; IC50 ± SD (μM) H460: 2.90 ± 0.58 | (B) TM-(–)-18: IC50 ± SD (μM) H292: > 100; IC50 ± SD (μM) H460: 7.89 ± 1.27 | (C) DH_28: BEAS-2B IC50 ± SD (μM): 16.46 ± 2.11 | (C) DH_30: BEAS-2B IC50 ± SD (μM): 5.50 ± 1.70 | (C) DH_31: BEAS-2B IC50 ± SD (μM): 6.51 ± 1.40 | (C) TM-(–)-18: BEAS-2B IC50 ± SD (μM): 7.25 ± 1.25 DOUBTS OF THE COPYIST ABOUT THIS PICTURE: Panel C, DH_28, IC50: small print, 16.46 ± 2.11 is the best reading; 6 could be 8 / Panel C, DH_30, IC50: small print, 5.50 ± 1.70 is the best reading; 5 could be 6 / Panel C, DH_31, IC50: small print, 6.51 ± 1.40 is the best reading; 6 could be 8 or 5 / Panel C, TM-(–)-18, IC50: small print, 7.25 ± 1.25 is the best reading

[2] = biological target: T1, STAT3 (Homo sapiens, UniProt P40763); experiment: STAT3 Western blot; assay type: cell-based; details: H460, 1 μM and 2.5 μM, 24 h (p < 0.05)
T1 construct: endogenous in cells; host or cells: NCI-H460 (ATCC HTB-177)
Description: These findings imply that DH_31 exerts its anticancer effects by modulating the expression and/or accumulation of STAT3.
Western blot analysis was performed to detect and quantify specific proteins in a sample. H460 cells (4.0 × 10^5 cells per well) were seeded in 6 well plates. Following overnight incubation, the cells were treated with different concentrations of DH_31 (0–2.5 μM) for 24 h at 37 °C. After treatment, the cell lysates were isolated using a 1 × RIPA buffer containing a protease inhibitor cocktail for 45 min at 4 °C. The protein content was determined using the BCA protein assay kit. For the Western blot assay, an equal amount of the denatured proteins from cell lysates was separated by electrophoresis on 10 or 12% SDS-PAGE and transferred to 0.2 µm polyvinylidene difluoride (PVDF) membranes (Bio-Rad Laboratories, Hercules, CA, USA). After the membranes were blocked with 5% skim milk, they were then incubated overnight with specific primary antibodies at 4 °C. Subsequently, the membranes were incubated with HRP-conjugated secondary antibodies for 1 h at room temperature. Protein bands were visualized using SuperSignal^TM West Pico PLUS Chemiluminescent Substrate. The protein intensity was analyzed using ImageJ™ software (Image J 1.52a, Rasband, W., National Institutes of Health, Bethesda, MD, USA).

[3] = test system: NSCLC cells (H292 and H460); experiment: Hoechst 33342/PI staining, percentage of dead cells in NSCLC; assay type: cell-based, human; details: 10 μM, 24 h
Description: as §1
Figure 2 The effect of RT right-half analogs on cytotoxicity in NSCLC and human normal lung epithelial (BEAS-2B) cell lines and apoptotic cell death in NSCLC cells. (A) NSCLC H292 and H460 cells were treated with derivatives of RT right-half analogs for 24 h and analyzed using MTT assay to assess cytotoxicity. (B) IC50 values for H292 and H460 cell lines were calculated. (C) BEAS-2B cells were treated with DH_28, DH_30, DH_31, and TM-(−)-18 for 24 h. The cytotoxic effects were evaluated using an MTT assay, and the IC50 values for BEAS-2B cells were determined. (D) H292 and H460 cells were seeded and treated with 0–10 μM of DH_28, DH_30, and DH_31 for 24 h. Hoechst 33342 and PI were used to stain the cell nuclei. Images were obtained under a fluorescence microscope. (E) The percentages of cell death were calculated based on the stained images in H292 and H460 cells. […]

T1 sequence (P40763 whole entry): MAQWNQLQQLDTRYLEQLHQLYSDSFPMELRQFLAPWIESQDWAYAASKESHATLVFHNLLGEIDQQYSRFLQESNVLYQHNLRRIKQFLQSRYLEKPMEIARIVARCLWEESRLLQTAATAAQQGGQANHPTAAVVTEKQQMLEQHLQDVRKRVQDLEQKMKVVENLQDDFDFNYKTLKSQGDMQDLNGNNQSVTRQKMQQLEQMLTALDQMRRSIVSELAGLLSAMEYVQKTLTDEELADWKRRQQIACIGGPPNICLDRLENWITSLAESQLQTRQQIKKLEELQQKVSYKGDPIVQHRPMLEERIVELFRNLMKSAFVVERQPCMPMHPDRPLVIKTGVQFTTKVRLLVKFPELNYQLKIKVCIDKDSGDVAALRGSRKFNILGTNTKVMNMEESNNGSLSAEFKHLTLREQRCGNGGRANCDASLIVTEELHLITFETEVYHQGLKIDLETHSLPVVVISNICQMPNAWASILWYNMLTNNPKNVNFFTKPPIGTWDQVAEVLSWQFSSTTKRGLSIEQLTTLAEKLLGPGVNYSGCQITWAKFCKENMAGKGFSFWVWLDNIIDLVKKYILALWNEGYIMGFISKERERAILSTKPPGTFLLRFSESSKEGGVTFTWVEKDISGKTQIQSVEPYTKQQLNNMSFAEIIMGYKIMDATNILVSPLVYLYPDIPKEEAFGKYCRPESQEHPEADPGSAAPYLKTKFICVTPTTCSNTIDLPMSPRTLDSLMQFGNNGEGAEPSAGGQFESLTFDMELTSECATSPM

In the case of COc1c(C)cc2c(c1O)[C@@H]1CN(Cc3ccc4ccccc4c3)[C@@H](C#N)[C@H](C2)N1C [DH_31, (1R,4R,5S)-10-hydroxy-9-methoxy-8,11-dimethyl-3-(naphthalen-2-ylmethyl)-1,2,3,4,5,6-hexahydro-1,5-epiminobenzo[d]azocine-4-carbonitrile], the apoptosis ([1]; H292, 1 µM) is reported as “significant apoptosis”, the apoptosis ([1]; H292, 10 µM) is reported as “significant apoptosis” and the necrosis ([1]; H292, 10 µM, 24 h (p < 0.001)) is reported as “Necrosis was detected”. The “STAT3 protein level (Western blot)” value [2] was “significant decrease” and the “dead cells in NSCLC” value [3] was 34–66%.
